The values that follow come from ChEMBL document CHEMBL1157748, “4-hydroxy-1,2,5-oxadiazol-3-yl moiety as bioisoster of the carboxy function. Synthesis, ionization constants, and molecular pharmacological characterization at ionotropic glutamate receptors of compounds related to glutamate and its homologues” (J Med Chem, 2010).

For orientation: IC50 means the concentration that gives 50% inhibition. The Ki is a measure of affinity in units of concentration, obtained from inhibition or displacement. Read a high Ki as lower affinity. The pIC50 is the IC50 on a negative log10 scale, so that one unit is a factor of ten. The EC50 is the concentration needed to bring the measured effect to its halfway point.

Calls of active or inactive are those of the source. The rule behind the calls is not given here.

A short description of experiment [1]: Displacement of [3H]AMPA from AMPA receptor in Sprague-Dawley rat brain membranes. Type of experiment: cell membranes, Membrane.
The target in experiment [2] is Glutamate NMDA receptor. The experiment is described as follows: Displacement of [3H]CPP from NMDA receptor in Sprague-Dawley rat brain membranes. Type of experiment: cell membranes, Membrane.
Experiment [3] has as its target Glutamate NMDA receptor. Kind of experiment: Displacement of [3H]CGP39653 from NMDA receptor in Sprague-Dawley rat brain membranes. Type of experiment: cell membranes, Membrane.
In experiment [4] the target is T1, Glutamate NMDA receptor; Grin1/Grin2a (Rattus norvegicus) (UniProt P35439+Q00959). The experiment is described as follows: Agonist activity at rat NR1/NR2A receptor expressed in BHK21 cells assessed as increase in intracellular calcium levels by FLIPR assay. The note with it: BHK-21. (Calcium assays in cells follow changes in intracellular calcium, usually with a dye or a luminescent sensor.)

Experiment [5] concerns the target T1, Glutamate NMDA receptor; Grin1/Grin2a (Rattus norvegicus). The experiment is described as follows: Agonist activity at rat NR1/NR2A receptor expressed in BHK21 cells assessed as change in intracellular calcium levels by FLIPR assay relative to (S)-Glu. Type of experiment: functional, cell-based. The note with it: BHK-21.
The target in experiment [6] is T2, Glutamate NMDA receptor; Grin1/Grin2a (Rattus norvegicus, UniProt P35439+Q00959). The experiment is described as follows: Agonist activity at rat NR1/NR2A receptor expressed in BHK21 cells assessed as change in intracellular calcium levels by FLIPR assay. In kind it is functional, cell-based, BHK-21.
Experiment [7] has as its target Glutamate receptor 2 (Homo sapiens, UniProt P42262). Kind of experiment: Activity at recombinant iGluR2 receptor expressed in Xenopus laevis oocytes using holding potential of -15 to -20 mV by TEVC electrophysiology. In kind it is cell-based, Oocyte.
The target in experiment [8] is Glutamate receptor ionotropic, kainate 3 (Rattus norvegicus, UniProt P42264). The experiment is described as follows: Displacement of [3H]SYM2081 from rat iGluR7 receptor expressed in Sf9 cells baculovirus system after 1 to 2 hrs by liquid scintillation counting. In general terms: Displacement assays read how much labelled ligand stays bound in the presence of the test substance.

Experiment [9] has as its target Glutamate receptor ionotropic, kainate 2 (Rattus norvegicus, UniProt P42260). Kind of experiment: Displacement of [3H]SYM2081 from rat iGluR6 receptor expressed in Sf9 cells baculovirus system after 1 to 2 hrs by liquid scintillation counting.
Experiment [10] concerns the target Glutamate receptor ionotropic, kainate 1 (Rattus norvegicus, UniProt P22756). Kind of experiment: biochemical.
Description: Displacement of [3H]SYM2081 from rat iGluR5 receptor expressed in Sf9 cells baculovirus system after 1 to 2 hrs by liquid scintillation counting
Experiment [11] addresses Glutamate receptor 2 (Rattus norvegicus, UniProt P19491). The experiment is described as follows: Displacement of [3H]AMPA from rat iGluR2 receptor expressed in Sf9 cells baculovirus system after 1 to 2 hrs by liquid scintillation counting.
The target in experiment [12] is T2, Glutamate NMDA receptor; Grin1/Grin2a. Kind of experiment: Antagonist activity at rat NR1/NR2A receptor expressed in BHK21 cells assessed as inhibition of (S)-Glu-induced intracellular calcium levels by FLIPR assay. In kind it is functional, cell-based, BHK-21.
For experiment [13] the target is unchanged. Kind of experiment: Agonist activity at rat NR1/NR2A receptor expressed in BHK21 cells assessed as change in intracellular calcium levels at 1000 uM by FLIPR assay. Type of experiment: functional, cell-based. The note with it: bhk-21.

Glutamate receptor 2 (Rattus norvegicus, UniProt P19491), sequence (P19491 whole entry): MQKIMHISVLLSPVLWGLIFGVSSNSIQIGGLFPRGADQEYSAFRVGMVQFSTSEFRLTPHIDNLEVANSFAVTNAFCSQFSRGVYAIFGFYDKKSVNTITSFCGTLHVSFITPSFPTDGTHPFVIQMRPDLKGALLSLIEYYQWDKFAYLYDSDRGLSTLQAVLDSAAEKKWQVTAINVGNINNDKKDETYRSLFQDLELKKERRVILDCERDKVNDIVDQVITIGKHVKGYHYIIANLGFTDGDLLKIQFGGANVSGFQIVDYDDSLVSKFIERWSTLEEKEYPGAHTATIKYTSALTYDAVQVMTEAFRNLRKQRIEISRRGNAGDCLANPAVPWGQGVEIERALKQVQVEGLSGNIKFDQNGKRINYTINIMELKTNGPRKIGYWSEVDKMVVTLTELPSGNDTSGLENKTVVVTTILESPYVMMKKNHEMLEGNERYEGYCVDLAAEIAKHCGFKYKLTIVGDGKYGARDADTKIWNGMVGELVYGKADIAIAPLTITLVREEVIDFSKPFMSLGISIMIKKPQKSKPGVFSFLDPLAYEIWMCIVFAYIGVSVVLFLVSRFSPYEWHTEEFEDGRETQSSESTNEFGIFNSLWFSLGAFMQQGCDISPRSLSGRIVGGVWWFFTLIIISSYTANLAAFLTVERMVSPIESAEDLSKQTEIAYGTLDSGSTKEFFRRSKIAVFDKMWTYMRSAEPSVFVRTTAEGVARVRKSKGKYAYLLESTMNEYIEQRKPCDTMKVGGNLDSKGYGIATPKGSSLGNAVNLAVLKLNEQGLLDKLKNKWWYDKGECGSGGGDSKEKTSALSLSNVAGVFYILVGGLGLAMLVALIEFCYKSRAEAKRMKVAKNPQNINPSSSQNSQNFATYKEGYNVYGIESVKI
Glutamate receptor ionotropic, kainate 3, sequence (P42264 whole entry): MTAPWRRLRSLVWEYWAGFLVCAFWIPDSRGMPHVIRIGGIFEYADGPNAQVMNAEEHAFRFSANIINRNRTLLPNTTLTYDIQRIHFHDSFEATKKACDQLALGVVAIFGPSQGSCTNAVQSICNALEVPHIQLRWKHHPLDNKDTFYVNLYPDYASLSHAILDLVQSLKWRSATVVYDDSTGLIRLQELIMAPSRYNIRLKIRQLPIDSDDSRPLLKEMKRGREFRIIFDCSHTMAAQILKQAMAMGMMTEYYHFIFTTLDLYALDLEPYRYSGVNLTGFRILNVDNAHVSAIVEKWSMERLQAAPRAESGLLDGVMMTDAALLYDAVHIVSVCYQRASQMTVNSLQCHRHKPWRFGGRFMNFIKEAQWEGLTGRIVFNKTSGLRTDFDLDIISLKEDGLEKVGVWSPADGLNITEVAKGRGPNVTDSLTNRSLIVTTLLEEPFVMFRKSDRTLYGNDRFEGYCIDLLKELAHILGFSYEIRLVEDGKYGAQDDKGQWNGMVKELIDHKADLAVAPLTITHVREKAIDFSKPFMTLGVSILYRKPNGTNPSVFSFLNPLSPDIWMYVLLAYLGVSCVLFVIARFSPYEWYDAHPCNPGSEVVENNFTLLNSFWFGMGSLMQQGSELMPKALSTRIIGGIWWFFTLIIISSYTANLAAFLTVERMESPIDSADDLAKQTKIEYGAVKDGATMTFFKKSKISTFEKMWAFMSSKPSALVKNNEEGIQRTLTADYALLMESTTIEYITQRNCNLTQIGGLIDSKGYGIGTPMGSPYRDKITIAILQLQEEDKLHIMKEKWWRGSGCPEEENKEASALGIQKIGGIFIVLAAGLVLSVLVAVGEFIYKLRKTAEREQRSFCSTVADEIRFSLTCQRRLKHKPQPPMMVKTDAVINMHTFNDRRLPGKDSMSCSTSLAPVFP
Glutamate receptor 2 (Homo sapiens, UniProt P42262), sequence (P42262 whole entry): as the sequence (P19491 whole entry) above, with T191M, A291T, G764R, P852A counted along it
Glutamate receptor ionotropic, kainate 1, sequence (P22756 whole entry): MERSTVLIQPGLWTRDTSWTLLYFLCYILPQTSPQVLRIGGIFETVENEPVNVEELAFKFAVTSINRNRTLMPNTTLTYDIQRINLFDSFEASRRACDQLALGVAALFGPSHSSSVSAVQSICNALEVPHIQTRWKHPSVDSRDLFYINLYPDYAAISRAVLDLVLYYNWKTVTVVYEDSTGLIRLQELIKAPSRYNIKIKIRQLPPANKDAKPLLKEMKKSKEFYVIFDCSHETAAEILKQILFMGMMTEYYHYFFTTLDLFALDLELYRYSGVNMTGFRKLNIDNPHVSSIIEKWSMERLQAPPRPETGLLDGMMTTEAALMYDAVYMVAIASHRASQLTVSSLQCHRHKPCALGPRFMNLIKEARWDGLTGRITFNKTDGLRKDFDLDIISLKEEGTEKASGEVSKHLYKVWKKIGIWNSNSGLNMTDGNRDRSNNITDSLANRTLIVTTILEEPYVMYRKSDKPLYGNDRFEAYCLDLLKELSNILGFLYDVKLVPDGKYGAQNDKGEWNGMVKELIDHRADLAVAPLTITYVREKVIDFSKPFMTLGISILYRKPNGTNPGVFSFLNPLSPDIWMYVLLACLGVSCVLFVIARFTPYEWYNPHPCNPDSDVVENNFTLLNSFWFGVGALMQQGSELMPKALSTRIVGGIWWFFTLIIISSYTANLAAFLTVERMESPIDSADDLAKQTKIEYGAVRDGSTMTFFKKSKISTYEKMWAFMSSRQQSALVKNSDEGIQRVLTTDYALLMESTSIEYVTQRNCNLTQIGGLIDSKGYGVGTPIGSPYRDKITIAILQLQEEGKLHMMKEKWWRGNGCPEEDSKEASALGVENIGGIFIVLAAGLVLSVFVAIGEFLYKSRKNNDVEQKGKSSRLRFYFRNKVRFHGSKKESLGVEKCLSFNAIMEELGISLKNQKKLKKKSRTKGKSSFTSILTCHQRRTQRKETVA
Glutamate receptor ionotropic, kainate 2, sequence (P42260 whole entry): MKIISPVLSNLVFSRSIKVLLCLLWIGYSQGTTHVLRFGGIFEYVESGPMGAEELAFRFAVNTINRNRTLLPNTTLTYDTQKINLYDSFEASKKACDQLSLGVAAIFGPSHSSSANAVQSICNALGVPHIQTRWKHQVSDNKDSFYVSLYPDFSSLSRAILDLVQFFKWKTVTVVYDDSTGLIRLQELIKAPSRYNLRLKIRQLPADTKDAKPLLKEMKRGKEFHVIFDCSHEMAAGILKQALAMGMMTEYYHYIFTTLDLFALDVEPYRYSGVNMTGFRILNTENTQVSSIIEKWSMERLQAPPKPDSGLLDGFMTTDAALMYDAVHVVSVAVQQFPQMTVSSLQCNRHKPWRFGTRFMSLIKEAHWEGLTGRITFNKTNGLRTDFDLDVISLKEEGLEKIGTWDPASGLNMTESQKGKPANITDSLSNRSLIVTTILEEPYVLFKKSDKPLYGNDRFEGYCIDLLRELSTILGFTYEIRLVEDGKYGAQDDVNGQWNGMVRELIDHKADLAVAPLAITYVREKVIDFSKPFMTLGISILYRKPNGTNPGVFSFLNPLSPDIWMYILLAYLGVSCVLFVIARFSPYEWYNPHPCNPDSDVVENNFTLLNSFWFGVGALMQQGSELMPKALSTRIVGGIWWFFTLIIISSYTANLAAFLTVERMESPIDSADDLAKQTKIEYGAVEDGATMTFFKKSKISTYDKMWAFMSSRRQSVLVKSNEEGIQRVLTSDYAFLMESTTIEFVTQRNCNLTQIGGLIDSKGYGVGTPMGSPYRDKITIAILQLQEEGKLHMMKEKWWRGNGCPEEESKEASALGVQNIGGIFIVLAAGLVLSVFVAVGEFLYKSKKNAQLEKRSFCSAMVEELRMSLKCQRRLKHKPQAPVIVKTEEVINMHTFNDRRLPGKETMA

Turning to `NC(Cc1nsnc1O)C(=O)O` (racemic), the IC50 in [1] is 0.12 µM. The Ki at Glutamate NMDA receptor [2] was > 100 µM.
At Glutamate NMDA receptor [3], `NC(C(=O)O)c1nonc1O` (racemic) returned a Ki of 6.3 µM. For the same compound, the IC50 in experiment [1] was > 100 µM.
With `NC(CCCc1nonc1O)C(=O)O` (racemic), in experiment [4], the result was inactive.
On to `NC(CCc1nonc1O)C(=O)O` (racemic), for which, in experiment [4], the outcome was inactive.
As for `NC(Cc1nonc1O)C(=O)O` (racemic) [2-AMINO-3-(4-HYDROXY-1,2,5-OXADIAZOL-3-YL)PROPIONIC ACID (STRUCTURAL MIX)], the Ki at Glutamate NMDA receptor [3] stood at 16 µM. Further, in [1], the IC50 worked out at 0.17 µM and the pIC50 came out at 6.76.
The corresponding values for `NC(CCc1nonc1O)C(=O)O` (racemic) [2-AMINO-4-(4-HYDROXY-1,2,5-OXADIAZOL-3-YL)BUTANOIC ACID (STRUCTURAL MIX)] are 4.9 µM, 77 µM and 4.12.
The like results for `NC(CCCc1nonc1O)C(=O)O` (racemic) [2-AMINO-5-(4-HYDROXY-1,2,5-OXADIAZOL-3-YL)PENTANOIC ACID (STRUCTURAL MIX)] were, in that order, 2.9 µM, 61 µM and 4.22.
For `Cc1onc(O)c1CC(N)C(=O)O` (racemic) [(R,S)-AMPA], the IC50 in experiment [1] is 0.039 µM.
Consider `NC(Cc1nonc1O)C(=O)O` (single isomer, unassigned; (+)), for which, in experiment [5], the Imax came to 0.76.
On to `NC(Cc1nonc1O)C(=O)O` (single isomer, unassigned; (+)) [2-AMINO-3-(4-HYDROXY-1,2,5-OXADIAZOL-3-YL)PROPIONIC ACID (STRUCTURAL MIX)], for which the EC50 in experiment [6] was found to be 47 µM; on Glutamate receptor 2 [7], 9.4 µM. Besides, the Ki on Glutamate NMDA receptor [3] was 13 µM; in experiment [8] it was > 100 µM; in experiment [9], > 100 µM; in experiment [10] it was 8.1 µM; at Glutamate receptor 2 [11], 0.043 µM. In experiment [1], this compound registered an IC50 of 0.11 µM. In experiment [1], this compound displayed a pIC50 of 6.95.
At Glutamate NMDA receptor [3], `NC(CCc1nonc1O)C(=O)O` (single isomer, unassigned; (-)) [2-AMINO-4-(4-HYDROXY-1,2,5-OXADIAZOL-3-YL)BUTANOIC ACID (STRUCTURAL MIX)] showed a Ki of 3.4 µM. In addition, the IC50 was > 100 µM in [1] and 49 µM in experiment [12].
In the case of `NC(CCc1nonc1O)C(=O)O` (stereo in doubt; (+)-15) [2-AMINO-4-(4-HYDROXY-1,2,5-OXADIAZOL-3-YL)BUTANOIC ACID (STRUCTURAL MIX)], the EC50 on Glutamate receptor 2 [7] is 489 µM; in experiment [13], “Not Active”. Besides, the Ki is 73 µM on Glutamate NMDA receptor [3]; 41 µM in [8]; > 1000 µM in experiment [9]; 53 µM in [10]; 40 µM at Glutamate receptor 2 [11]. In addition, the results for the IC50 in [1] and in experiment [12] were 42 µM and 1020 µM, respectively. The pIC50 in experiment [1] was 4.37.
Take `NC(CCCc1nonc1O)C(=O)O` (stereo in doubt; (+)-18) [2-AMINO-5-(4-HYDROXY-1,2,5-OXADIAZOL-3-YL)PENTANOIC ACID (STRUCTURAL MIX)]: the values for the EC50 (on Glutamate receptor 2 [7]; in experiment [13]) were 491 µM and “Not Active”, respectively. The Ki is 22 µM on Glutamate NMDA receptor [3]; > 1000 µM in experiment [8]; > 1000 µM in experiment [9]; 67 µM in experiment [10]; 20 µM at Glutamate receptor 2 [11]. Besides, the IC50 in experiment [1] stood at 42 µM; in [12], 245 µM. Also, the pIC50 in [1] turned out to be 4.37.
Take `NC(Cc1nonc1O)C(=O)O` (stereo in doubt; (-)-10) [2-AMINO-3-(4-HYDROXY-1,2,5-OXADIAZOL-3-YL)PROPIONIC ACID (STRUCTURAL MIX)]: the figures for the EC50 (in [6]; on Glutamate receptor 2 [7]) were > 500 µM and 43 µM, respectively. The Ki at Glutamate NMDA receptor [3] was > 100 µM; in [8] (sf9), > 100 µM; in experiment [9] (sf9), > 100 µM; in experiment [10], 77 µM; at Glutamate receptor 2 [11], 0.25 µM. The compound further gave an IC50 in experiment [1] of 0.76 µM.
For the compound `NC(CCCc1nonc1O)C(=O)O` (stereo in doubt; (-)-18) [2-AMINO-5-(4-HYDROXY-1,2,5-OXADIAZOL-3-YL)PENTANOIC ACID (STRUCTURAL MIX)], at Glutamate NMDA receptor [3], the inhibition constant Ki was found to be 1.8 µM. Further, the IC50 in [1] is > 100 µM; in experiment [12] it was 28 µM.
Take `C=C(C)[C@H]1CN[C@H](C(=O)O)[C@H]1CC(=O)O` [KAINIC ACID]: at Glutamate NMDA receptor [3], the Ki was > 100 µM. Also, the IC50 in experiment [1] was found to be 4 µM.
The like results for `CN[C@H](CC(=O)O)C(=O)O` [N-METHYL-D-ASPARTIC ACID (NMDA)] were, in that order, 6.2 µM and > 100 µM.
